The values below come from ChEMBL document CHEMBL1128521, “Partial GABAA receptor agonists. Synthesis and in vitro pharmacology of a series of nonannulated analogs of 4,5,6,7-tetrahydroisoxazolo[5,4-c]pyridin-3-ol” (J Med Chem, 1995).

The target in one data set is GABA B receptor (Rattus norvegicus, UniProt O88871+Q9Z0U4).
The species named for a further data set is Rattus norvegicus. As to the kind of experiment: cells. In kind it is functional, organism-based. The note with it: Brain.
The target in data set [1] is GABA-A receptor; anion channel.
A short description of data set [2]: Reversal potential is determined electrophysiologically against the GABA A receptor. The format is functional.

Where only a bound is given, the exact number is not on record here.

GABA B receptor, sequence (Q9Z0U4 whole entry): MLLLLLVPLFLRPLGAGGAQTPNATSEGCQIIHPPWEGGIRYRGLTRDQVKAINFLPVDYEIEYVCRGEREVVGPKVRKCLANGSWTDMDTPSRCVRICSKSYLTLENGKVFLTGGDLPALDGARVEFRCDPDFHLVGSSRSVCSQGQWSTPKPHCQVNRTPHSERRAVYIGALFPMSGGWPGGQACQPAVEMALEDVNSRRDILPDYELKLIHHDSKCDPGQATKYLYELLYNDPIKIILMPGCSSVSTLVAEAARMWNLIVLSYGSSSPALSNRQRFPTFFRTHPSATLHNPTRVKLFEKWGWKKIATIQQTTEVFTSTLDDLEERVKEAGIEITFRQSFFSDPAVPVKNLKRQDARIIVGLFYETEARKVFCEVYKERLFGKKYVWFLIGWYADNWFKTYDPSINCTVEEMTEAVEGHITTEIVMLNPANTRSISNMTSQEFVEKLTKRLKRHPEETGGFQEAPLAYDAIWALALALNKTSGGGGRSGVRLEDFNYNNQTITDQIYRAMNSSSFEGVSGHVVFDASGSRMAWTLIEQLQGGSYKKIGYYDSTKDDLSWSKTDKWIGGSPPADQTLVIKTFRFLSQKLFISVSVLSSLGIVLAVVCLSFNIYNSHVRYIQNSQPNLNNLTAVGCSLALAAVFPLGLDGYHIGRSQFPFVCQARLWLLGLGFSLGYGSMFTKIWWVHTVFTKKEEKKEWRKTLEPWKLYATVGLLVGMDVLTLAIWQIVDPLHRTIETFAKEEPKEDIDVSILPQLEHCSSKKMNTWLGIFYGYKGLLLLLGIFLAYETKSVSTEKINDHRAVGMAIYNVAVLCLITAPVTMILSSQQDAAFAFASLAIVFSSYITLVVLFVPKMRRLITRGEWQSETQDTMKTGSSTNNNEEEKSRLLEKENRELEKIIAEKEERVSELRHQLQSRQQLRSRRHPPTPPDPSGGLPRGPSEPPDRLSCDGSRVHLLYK
GABA B receptor, sequence (O88871 whole entry): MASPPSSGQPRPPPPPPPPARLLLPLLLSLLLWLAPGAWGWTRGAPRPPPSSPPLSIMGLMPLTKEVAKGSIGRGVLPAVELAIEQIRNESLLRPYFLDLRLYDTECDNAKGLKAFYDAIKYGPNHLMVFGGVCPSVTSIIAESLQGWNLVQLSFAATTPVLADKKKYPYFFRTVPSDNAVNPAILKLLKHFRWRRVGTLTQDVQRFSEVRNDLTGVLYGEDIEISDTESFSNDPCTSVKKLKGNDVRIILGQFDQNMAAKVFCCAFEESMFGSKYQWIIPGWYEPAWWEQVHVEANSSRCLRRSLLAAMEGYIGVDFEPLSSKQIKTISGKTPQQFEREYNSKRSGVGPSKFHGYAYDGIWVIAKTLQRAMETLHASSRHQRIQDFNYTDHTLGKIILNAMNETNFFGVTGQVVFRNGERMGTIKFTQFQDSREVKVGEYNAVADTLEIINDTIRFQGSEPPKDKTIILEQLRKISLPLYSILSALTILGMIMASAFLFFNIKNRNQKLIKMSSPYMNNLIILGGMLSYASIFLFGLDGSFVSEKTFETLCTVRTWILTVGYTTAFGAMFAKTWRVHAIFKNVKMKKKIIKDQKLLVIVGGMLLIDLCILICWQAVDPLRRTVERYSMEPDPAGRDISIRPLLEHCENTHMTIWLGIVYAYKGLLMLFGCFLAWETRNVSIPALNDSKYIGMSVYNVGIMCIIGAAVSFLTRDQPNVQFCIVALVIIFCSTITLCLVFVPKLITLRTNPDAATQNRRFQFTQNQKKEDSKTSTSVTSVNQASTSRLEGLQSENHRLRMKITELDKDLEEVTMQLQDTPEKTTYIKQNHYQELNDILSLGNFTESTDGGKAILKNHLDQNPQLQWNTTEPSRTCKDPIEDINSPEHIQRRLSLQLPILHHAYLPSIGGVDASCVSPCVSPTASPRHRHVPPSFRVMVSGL
Description for physchem: PKa values of the compound

As a reminder, the IC50 is the concentration that inhibits the measured activity by half. Lower therefore signals greater potency in that assay. Take `O=C(O)CCC1CCNCC1`: the IC50 on GABA B receptor is > 100 µM; in the data set listed under Rattus norvegicus, > 300 µM; in data set [1] it was > 100 µM.
With `O=C(O)/C=C/C1=CCNCC1`, the IC50 against GABA B receptor was > 100 µM; in the data set filed under Rattus norvegicus, > 300 µM; in data set [1], > 100 µM.
Take `O=C(O)CCC1=CCNCC1`: the IC50 on GABA B receptor was > 100 µM; in the data set filed under Rattus norvegicus, > 300 µM; in data set [1], > 100 µM.
By pKa is commonly meant the pH at which an ionisable group is half protonated. Read a high pKa as a group that holds its proton tightly. Take `Oc1cc(C2CCNCC2)sn1`: the IC50 on GABA B receptor was > 100 µM; in the data set listed under Rattus norvegicus, > 300 µM; in data set [1], 1.3 µM. Further, the Reverse potential in data set [2] worked out at 5.5. The pKa in the data set “physchem” is 6.9.
`O=c1cc(C2=CCNCC2)s[nH]1`: the IC50 on GABA B receptor is > 100 µM.
`Oc1cc(C2CCNCC2)no1`: the IC50 was > 100 µM on GABA B receptor, > 300 µM in the data set filed under Rattus norvegicus and 26 µM in data set [1]. Also, the Reverse potential in data set [2] amounted to 4.3.
Take `Oc1cc(C2=CCNCC2)on1`: the IC50 on GABA B receptor is > 100 µM; in the data set listed under Rattus norvegicus, > 300 µM; in data set [1], 32 µM. Besides, the Reverse potential in data set [2] came to 5.6. This compound also gave a pKa in “physchem” of 5.1.
On to `Oc1cc(C2CCNCC2)on1`, for which, in the data set listed under Rattus norvegicus, the IC50 is > 300 µM. Also, the Reverse potential in data set [2] was found to be 5.9. In “physchem”, this compound returned a pKa of 5.3.
On to `Oc1cc(C2=CCNCC2)sn1`, for which, in the data set filed under Rattus norvegicus, the IC50 was > 300 µM. Further, the Reverse potential in data set [2] came out at 5.3.
In the case of `O=C(O)/C=C/C1CCNCC1`, the IC50 against GABA B receptor is > 100 µM; in the data set listed under Rattus norvegicus it was > 300 µM; in data set [1], 52 µM.
For the compound `O=C(O)C1=CCNCC1` [ISOGUVACINE], the half-inhibitory concentration (IC50) on GABA B receptor was > 100 µM; in the data set listed under Rattus norvegicus, > 300 µM; in data set [1], 0.022 µM. The Reverse potential in data set [2] was found to be 5.2.
